In patent US20250281620A1, “HYDROXYBISPHOSPHONIC DERIVATIVES OF MELOXICAM FOR THE TREATMENT OF INFLAMMATORY JOINT DISEASES” (Atlanthéra, priority 2021, published 2025):

Experiments:
monoarthritis in rats = assay: mBSA-induced monoarthritis model in rats (knee swelling, limping); type: in vivo, rat; settings: oral daily meloxicam 0.2 mg/kg
Experimental: Monoarthritis was induced in rats (male, Sprague Dawley strain, aged 14 weeks) by intra-articular injection (knee) of 100 μg of mBSA after two preliminary sensitizers (2 and 3 weeks before the induction) by subcutaneous injection of a CFA emulsion containing 500 μg of mBSA. The distribution was carried out on D2, 24 h after induction, as a function of the intensity of the swelling in order to obtain homogeneity between the groups. […] The HBP-meloxicam molecules were solubilized in 5% glucose. In control, the pathological animals (mBSA) received a single injection (caudal vein, 5 min infusion, volume of 10 mL/kg) of 5% glucose.
In reference treatment, the animals received an oral daily administration of meloxicam for 28 days at the NOEL dose of 0.2 mg/kg-0.57 μmol/kg, i.e., a cumulative dose of 15.96 μmol/kg.
The evolution of arthritis was monitored by measuring the swelling of the pathological knee as well as the animal's limping.

Solubility in water = type: physicochemical; settings: general statement, no method described

solubility in water (Solubility in water): very poorly soluble
Compound: Cc1cnc(NC(=O)C2=C(O)c3ccccc3S(=O)(=O)N2C)s1 [meloxicam]
end of limping after treatment (monoarthritis in rats): 9 days
